Results on 9 compounds are retold here after ChEMBL document CHEMBL1201862, “PubChem BioAssay data set” (2004).

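Where inhibition never reached the appropriate level, the endpoint shown equals the highest concentration tested. Otherwise, values were interpolated linearly from a five-concentration, 48-hour dose response in 96-well plates. GI50 = concentration required for 50% inhibition of growth.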 Activity calls are given as the source filed them. Rule as the data show it: active = GI50 up to about 1.1 µM and inactive = higher.

Some test systems named below: ACHN; BT-549; CAKI-1; HOP-62; HT-29; IGROV-1; KM12; M14; MDA-N; NCI-H23; OVCAR-5; SF-268; SF-295; SK-MEL-28; SN12C; SNB-75; SR; T47D; TK-10; UO-31.
Holding throughout (assay): NCI-60 cell line screen, 48 h

Take `Oc1ccc(SCc2ccc(NCc3ccccc3)cc2)cc1`: the GI50 was 24 µM (inactive) in the test with ACHN; 31.8 µM (inactive) with BT-549; 19.6 µM (inactive) with CAKI-1; 46.6 µM (inactive) with HOP-62; 20 µM (inactive) in the test on HT-29; 45.5 µM (inactive) in the test with IGROV-1. Also, the GI50 was 29.2 µM (inactive) in the test on KM12; 19.4 µM (inactive) in the test with M14; 24.5 µM (inactive) with MDA-N; 24.7 µM (inactive) in the test on NCI-H23; 27.2 µM (inactive) in the test on OVCAR-5; 39.4 µM (inactive) in the test on SF-268. Also, the GI50 in the test on SF-295 was 22.3 µM (inactive); with SK-MEL-28 it was 63.8 µM (inactive); with SN12C it was 24.5 µM (inactive); in the test with SNB-75, 21.6 µM (inactive); in the test on SR, 13.1 µM (inactive); in the test on T47D it was 14.7 µM (inactive). Also, the GI50 in the test on TK-10 was 50.4 µM (inactive); in the test on UO-31 it was 14.3 µM (inactive).
`O=C1c2c(O)cccc2C(C(=O)CCCC(=O)C2c3cccc(O)c3C(=O)c3c(O)cccc32)c2cccc(O)c21`: the GI50 is 0.378 µM (active) with ACHN; 0.524 µM (active) in the test with BT-549; 1.27 µM (inactive) with CAKI-1; 0.612 µM (active) in the test on HOP-62; 0.746 µM (active) with HT-29; 0.415 µM (active) with IGROV-1. The GI50 was 0.242 µM (active) in the test with KM12; 0.368 µM (active) with M14; 0.442 µM (active) in the test with MDA-N; 0.27 µM (active) in the test with NCI-H23; 0.469 µM (active) in the test on OVCAR-5; 0.248 µM (active) with SF-268. Moreover, the GI50 is 0.243 µM (active) in the test on SF-295; 0.538 µM (active) in the test on SK-MEL-28; 0.643 µM (active) in the test with SN12C; 0.448 µM (active) in the test with SNB-75; 0.321 µM (active) in the test on SR; 0.279 µM (active) in the test with T47D. Moreover, the GI50 in the test with TK-10 was 0.547 µM (active); in the test on UO-31, 0.417 µM (active).
For `CC(NC(=O)C(CC(=O)OCc1ccccc1)NC(=O)OCc1ccccc1)c1ccccc1` (stereo not given), the GI50 with ACHN was 67.5 µM (inactive); in the test with BT-549, > 100 µM (inactive); in the test with CAKI-1, 83.4 µM (inactive); with HOP-62 it was 49.2 µM (inactive); in the test on HT-29 it was > 100 µM (inactive); with IGROV-1, > 100 µM (inactive). Further, the GI50 is > 100 µM (inactive) in the test with KM12; 27.7 µM (inactive) in the test with M14; > 100 µM (inactive) in the test on MDA-N; > 100 µM (inactive) in the test with NCI-H23; > 100 µM (inactive) with OVCAR-5; > 100 µM (inactive) in the test with SF-268. Besides, the GI50 was 55.1 µM (inactive) in the test with SF-295; 90.2 µM (inactive) in the test with SK-MEL-28; > 100 µM (inactive) in the test with SN12C; > 100 µM (inactive) with SNB-75; > 100 µM (inactive) in the test on SR; > 100 µM (inactive) in the test with T47D. Besides, the GI50 in the test on TK-10 and in the test with UO-31 was > 100 µM (inactive) in each case.
As for `CC(C)=CCC/C(C)=C/CC/C(C)=C/CC/C(C)=C/CC/C(C)=C/CC/C(C)=C/CC/C(C)=C/CC/C(C)=C/CC/C(C)=C/CO` [SOLANESOL], the GI50 in the test on ACHN, with BT-549, in the test on CAKI-1, with HOP-62, in the test on HT-29 and with IGROV-1 was > 100 µM (inactive) in each case. For the same compound, the GI50 in the test on KM12, in the test with M14, in the test with MDA-N, in the test with NCI-H23, with OVCAR-5 and in the test on SF-268 was > 100 µM (inactive) in each case. The GI50 in the test on SF-295, in the test on SK-MEL-28, with SN12C, in the test on SNB-75, in the test on SR and in the test with T47D was > 100 µM (inactive) throughout. In addition, the GI50 with TK-10 and in the test with UO-31 was > 100 µM (inactive) throughout.
As for `NNc1nc2ccccc2c(=O)n1NC(=O)C(=O)Nc1cccc(C(F)(F)F)c1`, the GI50 with ACHN is > 100 µM (inactive); in the test on BT-549 it was > 100 µM (inactive); in the test on CAKI-1 it was > 100 µM (inactive); in the test on HOP-62, > 100 µM (inactive); in the test with HT-29, > 100 µM (inactive); with IGROV-1, 47.6 µM (inactive). For the same compound, the GI50 in the test on KM12, in the test on M14, with MDA-N, in the test with NCI-H23, in the test on OVCAR-5 and in the test on SF-268 was > 100 µM (inactive) in each case. Besides, the GI50 in the test with SF-295 is > 100 µM (inactive); with SK-MEL-28, > 100 µM (inactive); in the test with SN12C, > 100 µM (inactive); in the test with SNB-75, > 100 µM (inactive); with SR, > 10 µM (inactive); with T47D, > 100 µM (inactive). For the same compound, the GI50 in the test on TK-10 and with UO-31 was > 100 µM (inactive) in each case.
For the compound `COC(=O)c1c(CC(Cc2ccc3c(c2)CCCC3)C(=O)O)ccc2c1CCCC2` (stereo not given), the GI50 in the test on ACHN is 34 µM (inactive); with BT-549, 40.9 µM (inactive); in the test on CAKI-1 it was 36 µM (inactive); in the test with HOP-62, 22.8 µM (inactive); in the test with HT-29 it was 33 µM (inactive); in the test with IGROV-1, 36.8 µM (inactive). Also, the GI50 in the test on KM12 was 27.4 µM (inactive); with M14, 42.9 µM (inactive); in the test on MDA-N it was 43.2 µM (inactive); with NCI-H23, 60.4 µM (inactive); with OVCAR-5, 43.8 µM (inactive); in the test with SF-268, 37.1 µM (inactive). For the same compound, the GI50 in the test on SF-295 is 32.6 µM (inactive); with SK-MEL-28, 34.7 µM (inactive); in the test with SN12C it was 36.9 µM (inactive); in the test on SNB-75 it was 36.4 µM (inactive); in the test on SR it was 30.5 µM (inactive); in the test on T47D it was 33.4 µM (inactive). Also, the GI50 is 36.1 µM (inactive) in the test with TK-10 and 25.8 µM (inactive) with UO-31.
In the case of `Cc1c(/C=N/NC(=S)Nc2ccc(Cl)cc2)c(=O)n(-c2ccccc2)n1C`, the GI50 was 16.1 µM (inactive) in the test on ACHN; 0.0258 µM (active) in the test with BT-549; 9.75 µM (inactive) in the test on CAKI-1; 14.3 µM (inactive) with HOP-62; > 100 µM (inactive) in the test on HT-29; 16 µM (inactive) in the test with IGROV-1. Moreover, the GI50 was > 47.6 µM (inactive) with KM12; > 62.8 µM (inactive) with M14; > 100 µM (inactive) in the test with MDA-N; 24.8 µM (inactive) with NCI-H23; > 56.5 µM (inactive) in the test with OVCAR-5; 15.8 µM (inactive) in the test with SF-268. For the same compound, the GI50 with SF-295 was 18.4 µM (inactive); with SK-MEL-28, > 100 µM (inactive); with SN12C, > 82.6 µM (inactive); with SNB-75, 15.9 µM (inactive); with SR, 4.93 µM (inactive); in the test with T47D, 46.6 µM (inactive). Besides, the GI50 in the test on TK-10 was 23.6 µM (inactive); in the test on UO-31, 32.1 µM (inactive).
Regarding `C[C@H](NC(=O)c1ccc(CNC(=O)/C=C/c2cccc(Oc3ccccc3)c2)cc1)c1ccccc1`, the GI50 in the test on ACHN is 57.9 µM (inactive); in the test with BT-549, > 100 µM (inactive); with CAKI-1, 22.6 µM (inactive); in the test on HOP-62, 36.9 µM (inactive); with HT-29 it was > 100 µM (inactive); in the test on IGROV-1, > 100 µM (inactive). Further, the GI50 with KM12, with M14, with MDA-N, in the test on NCI-H23, with OVCAR-5 and in the test on SF-268 was > 100 µM (inactive) in each case. The GI50 is 40.8 µM (inactive) in the test on SF-295; 80.9 µM (inactive) in the test with SK-MEL-28; > 100 µM (inactive) in the test on SN12C; 15.2 µM (inactive) with SNB-75; 26.8 µM (inactive) in the test on SR; 98.2 µM (inactive) with T47D. In addition, the values for the GI50 in the test with TK-10 and with UO-31 were 61.4 µM (inactive) and 46.1 µM (inactive), respectively.
`O=[As](O)(O)c1ccc(NCc2ccccc2)cc1`: the GI50 with ACHN, in the test on BT-549, in the test with CAKI-1, in the test on HOP-62, in the test on HT-29 and with IGROV-1 was > 100 µM (inactive) throughout. The GI50 is > 100 µM (inactive) in the test on KM12; > 100 µM (inactive) in the test with M14; > 100 µM (inactive) in the test on MDA-N; 92.9 µM (inactive) in the test with NCI-H23; > 100 µM (inactive) in the test with OVCAR-5; > 100 µM (inactive) in the test with SF-268. Further, the GI50 with SF-295, with SK-MEL-28, in the test on SN12C, with SNB-75, in the test with SR and in the test with T47D was > 100 µM (inactive) throughout. Also, the GI50 in the test on TK-10 and in the test with UO-31 was > 100 µM (inactive) throughout.
